We go through two molecules from paper PMC3094853 (Chembiochem : a European journal of chemical biology, 2010).

pIC50: −log10 of the molar value. Where two headings read alike, the source gives them in different places.

One assay has as its target HER2 TK (Homo sapiens, UniProt P04626). The assay can be described thus: ELISA of biotinylated peptide phosphorylation. It counts as biochemical. (An ELISA detects its analyte on a solid surface through an enzyme-linked reagent.)
The next assay concerns the target HER1 TK (Homo sapiens, UniProt P00533). The assay can be described thus: ELISA of biotinylated peptide phosphorylation. Particulars: 20 µM ATP; 1.5 µM peptide substrate; 5 mM MgCl2; 5 mM MnCl2; HEPES pH 7.5; 23 °C. It counts as biochemical.

As a reminder, the pIC50 is −log10 of the IC50, conventionally taken in molar units. A lower pIC50 goes with a high IC50. With `COc1cc(/C=C(\C#N)C(N)=O)cc(CSc2nc3ccccc3s2)c1O` [AG-825], on HER2 TK, the pIC50 is 6.23.

For 4-trifluoromethylcinnamoyl pyrone [2e], the pIC50 against HER2 TK (20 µM ATP, 1.5 µM peptide substrate, 5 mM MgCl2, 5 mM MnCl2, HEPES pH 7.5, 23 °C) was 6.80; against HER1 TK, 6.48.
